Experiments:
HL60 cells = type: cell-based, human
[1] = tested on: HL60 human leukemia cells; type: cell-based
mice = conditions: mouse, in vivo
[2] = tested on: U937/PR9 cells (PML/RAR alpha); type: cell-based, human
Swiss Webster mice = conditions: mouse, in vivo
[3] = tested on: panel of 60 tumor cell lines; type: cell-based, human

SMILES: C[As](C)SC[C@H](NC(=O)CC[C@H](N)C(=O)O)C(=O)NCC(=O)O [SGLU1, S-(Dimethylarsino) Glutathione]
- cell cycle disturbance (HL60 cells): marked accumulation of cells in S-phase
- induction of apoptosis (annexin V staining), events involved [1]: involves change of the potential of mitochondrial membrane (CMXRos staining) and activation of caspases
- doses at which deaths occurred (mice; both, iv): 250, 300, and 350 mg/kg/day
- no-observable-effect level for female mice (mice; female, iv): 150 mg/kg
- no-observable-effect level (NOEL) for male mice (mice; male, iv): 100 mg/kg/day
- testicular seminiferous tubular degeneration, incidence (mice; 150 mg/kg/day): ⅕
- centrilobular hypertrophy of hepatocytes, incidence (mice; 200 mg/kg/day): ⅕
- organs with compound-related lesions (mice; iv): lung, liver, thymus, and testes
- sex difference in susceptibility (deaths) (mice; iv): female mice being more susceptible than males
- influence of functional PML/Rar alpha gene on sensitivity of the cells [2]: no influence on the sensitivity
- tolerability (Swiss Webster mice): tolerated
- toxicity to normal cells compared with arsenic trioxide (normal donor cells): less toxic then arsenic trioxide
- anticancer activity against tumor cell line panel [3]: evidence of activity at low concentrations

Reference: patent publication US7405314B2 (priority 2004, dated 2008)
